Laboratory results as given in ChEMBL document CHEMBL4177594, “Design, synthesis, and evaluation of salicyladimine derivatives as multitarget-directed ligands against Alzheimer's disease” (Bioorg Med Chem, 2017).

Columns and labels:
[1] = biological target: T1, Amine oxidase [flavin-containing] B (Homo sapiens, UniProt P27338); test: Inhibition of human MAO-B using p-tyramine as substrate preincubated for 15 mins followed by substrate addition measured after 20 mins by fluorescence-based Amplex Red MAO assay
T1 sequence (P27338 whole entry): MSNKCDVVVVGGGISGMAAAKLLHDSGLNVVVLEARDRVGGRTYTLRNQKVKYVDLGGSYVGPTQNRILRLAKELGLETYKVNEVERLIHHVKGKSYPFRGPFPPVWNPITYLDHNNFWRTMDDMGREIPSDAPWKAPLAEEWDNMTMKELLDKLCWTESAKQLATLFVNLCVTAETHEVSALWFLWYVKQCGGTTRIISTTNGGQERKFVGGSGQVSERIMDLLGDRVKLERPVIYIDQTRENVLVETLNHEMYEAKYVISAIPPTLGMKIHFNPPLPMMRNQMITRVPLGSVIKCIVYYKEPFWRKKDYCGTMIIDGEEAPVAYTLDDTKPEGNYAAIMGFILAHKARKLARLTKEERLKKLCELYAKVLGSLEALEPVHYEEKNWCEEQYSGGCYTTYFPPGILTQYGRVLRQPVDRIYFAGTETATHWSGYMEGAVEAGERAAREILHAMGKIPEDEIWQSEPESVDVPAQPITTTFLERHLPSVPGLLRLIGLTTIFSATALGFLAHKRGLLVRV

[2] = organism: Homo sapiens; test: Selectivity index, ratio of IC50 for human MAO-A to IC50 for human MAO-B
[3] = Antioxidant activity assessed as DPPH radical scavenging activity after 30 mins; type: functional
[4] = system: PC-12; test: Antioxidant activity against H2O2-induced oxidative stress in rat PC12 cells assessed as reduction in intracellular ROS levels after 48 hrs by DCFH-DA staining based flow cytometry; type: functional, cell-based
[5] = system: PC-12; test: Neuroprotective activity against H2O2-induced apoptosis in rat PC12 cells assessed as apoptotic cells at 6.25 uM after 24 hrs by Annexin V/FITC/propidium iodide staining-based flow cytometry (reference value: 52.3%); type: functional
[6] = system: PC-12; test: Neuroprotective activity against H2O2-induced apoptosis in rat PC12 cells assessed as apoptotic cells at 12.5 uM after 24 hrs by Annexin V/FITC/propidium iodide staining-based flow cytometry (reference value: 52.3%); type: functional
[7] = system: PC-12; test: Neuroprotective activity against H2O2-induced apoptosis in rat PC12 cells assessed as apoptotic cells at 50 uM after 24 hrs by Annexin V/FITC/propidium iodide staining-based flow cytometry (reference value: 52.3%); type: functional
[8] = system: PC-12; test: Neuroprotective activity against H2O2-induced apoptosis in rat PC12 cells assessed as late apoptosis cells level at 6.25 uM after 24 hrs by Annexin V/FITC/propidium iodide staining-based flow cytometry (reference value: 1.9%); type: functional
[9] = system: PC-12; test: Neuroprotective activity against H2O2-induced apoptosis in rat PC12 cells assessed as necrosis cells level at 6.25 uM after 24 hrs by Annexin V/FITC/propidium iodide staining-based flow cytometry (reference value: 0.1%); type: functional
[10] = system: PC-12; test: Neuroprotective activity against H2O2-induced apoptosis in rat PC12 cells assessed as viable cells level at 25 uM after 24 hrs by Annexin V/FITC/propidium iodide staining-based flow cytometry (reference value: 96.2%); type: functional
[11] = system: PC-12; test: Neuroprotective activity against H2O2-induced apoptosis in rat PC12 cells assessed as late apoptosis cells level at 25 uM after 24 hrs by Annexin V/FITC/propidium iodide staining-based flow cytometry (reference value: 1.9%); type: functional
[12] = system: PC-12; test: Neuroprotective activity against H2O2-induced apoptosis in rat PC12 cells assessed as viable cells level at 50 uM after 24 hrs by Annexin V/FITC/propidium iodide staining-based flow cytometry (reference value: 96.2%); type: functional

IC50 [1]: 1.73 µM
Ratio IC50 [2]: > 57.8
IC50 [3]: 43.4 µM
Compound: Oc1ccc(/C=N/c2ccc(OCc3ccccc3)cc2)c(O)c1O
Activity [4]: Dose-dependent effect
Activity [5]: 38.6%
Activity [6]: 29.9%
Activity [7]: 6.1%
Activity [8]: 11.9%
Activity [9]: 0.8%
Activity [10]: 87.7%
Activity [11]: 2.7%
Activity [12]: 91.1%
